Test [1] concerns the target T1, Cyclin-dependent kinase-like 5 (Homo sapiens) (UniProt O76039).
T1 sequence (whole entry): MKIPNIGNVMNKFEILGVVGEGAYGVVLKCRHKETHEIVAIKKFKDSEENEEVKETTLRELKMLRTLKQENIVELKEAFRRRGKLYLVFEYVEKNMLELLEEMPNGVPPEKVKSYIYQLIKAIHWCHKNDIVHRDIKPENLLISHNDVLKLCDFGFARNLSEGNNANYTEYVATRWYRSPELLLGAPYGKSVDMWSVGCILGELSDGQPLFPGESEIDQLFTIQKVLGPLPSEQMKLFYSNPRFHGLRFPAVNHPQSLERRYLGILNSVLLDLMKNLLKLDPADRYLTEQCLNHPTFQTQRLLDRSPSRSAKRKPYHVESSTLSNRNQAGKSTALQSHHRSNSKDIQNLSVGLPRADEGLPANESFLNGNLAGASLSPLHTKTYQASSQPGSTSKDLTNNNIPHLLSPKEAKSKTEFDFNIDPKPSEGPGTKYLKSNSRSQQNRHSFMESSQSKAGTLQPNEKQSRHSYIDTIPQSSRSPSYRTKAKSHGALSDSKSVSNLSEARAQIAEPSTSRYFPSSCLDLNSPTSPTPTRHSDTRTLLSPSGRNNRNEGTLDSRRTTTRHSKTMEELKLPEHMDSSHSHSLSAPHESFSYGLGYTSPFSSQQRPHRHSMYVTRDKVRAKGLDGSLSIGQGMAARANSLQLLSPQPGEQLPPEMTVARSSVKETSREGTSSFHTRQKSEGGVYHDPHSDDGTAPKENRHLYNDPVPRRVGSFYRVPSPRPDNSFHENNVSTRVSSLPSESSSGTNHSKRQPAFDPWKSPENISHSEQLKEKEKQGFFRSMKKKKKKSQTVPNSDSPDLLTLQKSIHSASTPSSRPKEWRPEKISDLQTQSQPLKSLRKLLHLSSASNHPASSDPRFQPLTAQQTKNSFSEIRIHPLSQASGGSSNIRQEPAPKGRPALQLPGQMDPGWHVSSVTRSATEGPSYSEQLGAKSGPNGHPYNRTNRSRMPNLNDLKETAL
As to the kind of experiment: Selectivity interaction (KinomeScan (DiscoverX)) EUB0001619a CDKL5. Particulars: at 1 µM.

The target of test [2] is T2, Dual specificity mitogen-activated protein kinase kinase 6 (Homo sapiens) (UniProt P52564).
T2 sequence (whole entry): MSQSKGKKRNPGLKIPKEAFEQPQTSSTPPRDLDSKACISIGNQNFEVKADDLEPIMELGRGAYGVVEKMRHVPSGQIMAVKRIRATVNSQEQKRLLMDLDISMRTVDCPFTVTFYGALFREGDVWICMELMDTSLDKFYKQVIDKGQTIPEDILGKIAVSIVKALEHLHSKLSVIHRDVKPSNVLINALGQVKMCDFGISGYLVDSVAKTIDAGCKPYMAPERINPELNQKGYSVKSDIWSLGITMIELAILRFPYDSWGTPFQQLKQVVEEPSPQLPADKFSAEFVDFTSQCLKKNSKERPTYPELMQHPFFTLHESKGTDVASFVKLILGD
As to the kind of experiment: Selectivity interaction (ActivX KiNativ screen (ex vivo kinase selectivity in human PBMCs)) EUB0001619a MAP2K6. Format: cell-based. Particulars: PBMC, at 1 µM.

Test [3] deals with Serine/threonine-protein kinase 32A (Homo sapiens) (UniProt Q8WU08). As to the kind of experiment: Selectivity interaction (KinomeScan (DiscoverX)) EUB0000666a STK32A. The following applies: at 10 µM.
Serine/threonine-protein kinase 32A (Homo sapiens), sequence (Q8WU08 whole entry): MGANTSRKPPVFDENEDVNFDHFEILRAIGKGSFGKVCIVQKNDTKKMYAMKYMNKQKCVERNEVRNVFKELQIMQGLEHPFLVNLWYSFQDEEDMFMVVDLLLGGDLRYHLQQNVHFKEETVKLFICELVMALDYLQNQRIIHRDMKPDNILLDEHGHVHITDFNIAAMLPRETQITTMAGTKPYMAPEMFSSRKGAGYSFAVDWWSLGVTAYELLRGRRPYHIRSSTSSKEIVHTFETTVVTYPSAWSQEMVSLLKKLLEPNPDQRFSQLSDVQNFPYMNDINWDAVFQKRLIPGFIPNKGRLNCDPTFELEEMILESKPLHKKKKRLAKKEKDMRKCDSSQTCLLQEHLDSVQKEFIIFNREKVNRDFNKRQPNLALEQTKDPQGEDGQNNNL
Test [4] concerns the target eIF-2-alpha kinase GCN2 (Homo sapiens) (UniProt Q9P2K8). The test can be described thus: Selectivity interaction (ActivX KiNativ screen (kinase selectivity in THP-1 cell lysates)) EUB0000639a EIF2AK4. Format: subcellular. Particulars: lysate, at 1 µM.
The target of test [5] is Protein arginine N-methyltransferase 8 (Homo sapiens, UniProt Q9NR22). Particulars: at 10 µM.
Protein arginine N-methyltransferase 8, sequence (Q9NR22 2-394 limits assumed): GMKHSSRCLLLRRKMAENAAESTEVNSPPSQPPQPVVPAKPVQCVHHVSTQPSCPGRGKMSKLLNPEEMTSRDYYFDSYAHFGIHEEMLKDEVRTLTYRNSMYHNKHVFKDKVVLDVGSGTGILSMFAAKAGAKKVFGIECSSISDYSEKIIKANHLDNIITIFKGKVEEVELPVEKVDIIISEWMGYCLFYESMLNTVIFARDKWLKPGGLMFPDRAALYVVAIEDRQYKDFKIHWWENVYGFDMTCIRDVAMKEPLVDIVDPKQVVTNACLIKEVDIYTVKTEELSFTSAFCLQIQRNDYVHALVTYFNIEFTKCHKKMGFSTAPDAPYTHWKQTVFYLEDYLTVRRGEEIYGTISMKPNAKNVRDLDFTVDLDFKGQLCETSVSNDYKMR
Test [6] concerns the target Bromodomain-containing protein 8 (Homo sapiens) (UniProt Q9H0E9). As to the kind of experiment: Selectivity interaction (Bromodomain panel (DSF asssay)) EUB0000270b BRD8.
The target in test [7] is Serine/threonine-protein kinase MRCK alpha (Homo sapiens) (UniProt Q5VT25). The test can be described thus: Selectivity interaction (KinomeScan (DiscoverX)) EUB0000618a CDC42BPA. The following applies: at 10 µM.
The target of test [8] is T3, Mitogen-activated protein kinase kinase kinase 12 (Homo sapiens) (UniProt Q12852).
T3 sequence (whole entry): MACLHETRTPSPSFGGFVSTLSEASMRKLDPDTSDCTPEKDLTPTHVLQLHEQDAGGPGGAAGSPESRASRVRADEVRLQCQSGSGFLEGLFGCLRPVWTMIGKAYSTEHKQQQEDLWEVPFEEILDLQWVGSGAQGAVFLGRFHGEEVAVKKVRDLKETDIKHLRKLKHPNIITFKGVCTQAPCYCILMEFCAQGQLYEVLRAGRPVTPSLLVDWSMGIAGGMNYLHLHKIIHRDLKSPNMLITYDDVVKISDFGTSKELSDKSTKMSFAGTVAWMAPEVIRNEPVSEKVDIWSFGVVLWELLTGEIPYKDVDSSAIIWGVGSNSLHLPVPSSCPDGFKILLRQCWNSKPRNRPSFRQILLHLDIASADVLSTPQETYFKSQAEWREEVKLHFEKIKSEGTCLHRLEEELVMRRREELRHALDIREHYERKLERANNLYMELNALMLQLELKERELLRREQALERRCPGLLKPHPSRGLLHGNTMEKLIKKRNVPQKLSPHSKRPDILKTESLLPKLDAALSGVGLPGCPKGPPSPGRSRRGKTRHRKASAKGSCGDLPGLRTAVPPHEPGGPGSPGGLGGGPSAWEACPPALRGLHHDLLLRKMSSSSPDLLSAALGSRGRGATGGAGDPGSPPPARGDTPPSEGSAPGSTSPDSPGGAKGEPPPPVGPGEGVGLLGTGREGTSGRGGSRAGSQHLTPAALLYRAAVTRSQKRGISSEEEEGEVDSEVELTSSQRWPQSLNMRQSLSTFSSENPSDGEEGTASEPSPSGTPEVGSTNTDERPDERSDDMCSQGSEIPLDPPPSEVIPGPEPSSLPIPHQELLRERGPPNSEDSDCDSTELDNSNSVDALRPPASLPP
As to the kind of experiment: Selectivity interaction (KinomeScan (DiscoverX)) EUB0000618a MAP3K12. Particulars: at 10 µM.

The target in test [9] is SWI/SNF-related matrix-associated actin-dependent regulator of chromatin subfamily A member 4 (Homo sapiens) (UniProt P51532). The test can be described thus: Selectivity interaction (Human bromodomain panel (DSF assay)) EUB0000233b SMARCA4. (Differential scanning fluorimetry follows unfolding on heating by fluorescence.)
SWI/SNF-related matrix-associated actin-dependent regulator of chromatin subfamily A member 4 (Homo sapiens), sequence (P51532 whole entry): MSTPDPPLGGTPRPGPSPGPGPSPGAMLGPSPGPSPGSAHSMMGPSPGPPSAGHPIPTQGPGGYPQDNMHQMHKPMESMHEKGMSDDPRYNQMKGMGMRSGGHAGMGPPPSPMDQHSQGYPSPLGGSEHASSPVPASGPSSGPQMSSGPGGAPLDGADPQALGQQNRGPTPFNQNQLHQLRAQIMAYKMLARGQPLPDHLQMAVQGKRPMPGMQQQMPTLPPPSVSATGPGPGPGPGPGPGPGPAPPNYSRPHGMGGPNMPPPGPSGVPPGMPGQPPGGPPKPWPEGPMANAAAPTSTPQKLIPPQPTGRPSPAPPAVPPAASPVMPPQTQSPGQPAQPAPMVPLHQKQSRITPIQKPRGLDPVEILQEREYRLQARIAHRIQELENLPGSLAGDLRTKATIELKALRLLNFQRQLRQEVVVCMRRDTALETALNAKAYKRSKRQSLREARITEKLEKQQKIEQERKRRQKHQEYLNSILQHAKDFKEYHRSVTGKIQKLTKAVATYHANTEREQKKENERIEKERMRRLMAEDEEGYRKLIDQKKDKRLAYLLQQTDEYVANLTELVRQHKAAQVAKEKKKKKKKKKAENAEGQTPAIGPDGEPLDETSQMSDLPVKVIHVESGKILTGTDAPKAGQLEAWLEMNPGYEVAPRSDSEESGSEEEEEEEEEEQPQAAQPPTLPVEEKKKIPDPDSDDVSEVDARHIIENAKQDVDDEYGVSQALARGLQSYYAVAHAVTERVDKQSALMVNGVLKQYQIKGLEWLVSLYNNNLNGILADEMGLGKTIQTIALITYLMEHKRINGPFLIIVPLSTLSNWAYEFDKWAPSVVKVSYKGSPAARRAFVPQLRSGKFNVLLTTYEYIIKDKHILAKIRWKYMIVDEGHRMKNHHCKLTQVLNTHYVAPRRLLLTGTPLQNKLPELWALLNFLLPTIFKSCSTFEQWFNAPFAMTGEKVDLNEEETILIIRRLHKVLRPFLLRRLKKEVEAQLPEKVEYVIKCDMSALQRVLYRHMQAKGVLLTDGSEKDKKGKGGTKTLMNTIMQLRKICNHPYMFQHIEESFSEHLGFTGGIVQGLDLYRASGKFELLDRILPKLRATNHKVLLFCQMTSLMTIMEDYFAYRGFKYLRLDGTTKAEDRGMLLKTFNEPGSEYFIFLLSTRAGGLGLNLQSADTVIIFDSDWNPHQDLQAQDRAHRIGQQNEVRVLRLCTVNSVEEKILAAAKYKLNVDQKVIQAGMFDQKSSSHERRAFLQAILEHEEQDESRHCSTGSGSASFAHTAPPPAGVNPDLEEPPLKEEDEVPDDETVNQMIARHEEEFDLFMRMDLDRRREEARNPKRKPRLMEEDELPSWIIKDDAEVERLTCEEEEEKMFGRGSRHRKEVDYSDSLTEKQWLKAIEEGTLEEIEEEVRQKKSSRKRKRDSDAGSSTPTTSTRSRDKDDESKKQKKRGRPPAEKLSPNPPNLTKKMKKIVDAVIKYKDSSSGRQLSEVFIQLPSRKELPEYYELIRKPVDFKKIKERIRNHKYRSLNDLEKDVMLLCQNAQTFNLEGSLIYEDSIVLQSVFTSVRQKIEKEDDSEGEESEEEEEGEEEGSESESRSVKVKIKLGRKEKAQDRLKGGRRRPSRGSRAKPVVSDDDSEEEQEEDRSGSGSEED
Test [10] in a line: Selectivity interaction (Kinase panel (KiNativ target engagement assay in Jurkat cells)) EUB0001635a STLK6. The following applies: Selectivity number of off-targets 0; Selectivity number of targets 233; Source Knowledge https://www.sciencedirect.com/science/article/pii/S2451945619300674?via%3Dihub; at 1 µM.

Bounds are passed on as bounds.

eIF-2-alpha kinase GCN2 (Homo sapiens), sequence (Q9P2K8 whole entry): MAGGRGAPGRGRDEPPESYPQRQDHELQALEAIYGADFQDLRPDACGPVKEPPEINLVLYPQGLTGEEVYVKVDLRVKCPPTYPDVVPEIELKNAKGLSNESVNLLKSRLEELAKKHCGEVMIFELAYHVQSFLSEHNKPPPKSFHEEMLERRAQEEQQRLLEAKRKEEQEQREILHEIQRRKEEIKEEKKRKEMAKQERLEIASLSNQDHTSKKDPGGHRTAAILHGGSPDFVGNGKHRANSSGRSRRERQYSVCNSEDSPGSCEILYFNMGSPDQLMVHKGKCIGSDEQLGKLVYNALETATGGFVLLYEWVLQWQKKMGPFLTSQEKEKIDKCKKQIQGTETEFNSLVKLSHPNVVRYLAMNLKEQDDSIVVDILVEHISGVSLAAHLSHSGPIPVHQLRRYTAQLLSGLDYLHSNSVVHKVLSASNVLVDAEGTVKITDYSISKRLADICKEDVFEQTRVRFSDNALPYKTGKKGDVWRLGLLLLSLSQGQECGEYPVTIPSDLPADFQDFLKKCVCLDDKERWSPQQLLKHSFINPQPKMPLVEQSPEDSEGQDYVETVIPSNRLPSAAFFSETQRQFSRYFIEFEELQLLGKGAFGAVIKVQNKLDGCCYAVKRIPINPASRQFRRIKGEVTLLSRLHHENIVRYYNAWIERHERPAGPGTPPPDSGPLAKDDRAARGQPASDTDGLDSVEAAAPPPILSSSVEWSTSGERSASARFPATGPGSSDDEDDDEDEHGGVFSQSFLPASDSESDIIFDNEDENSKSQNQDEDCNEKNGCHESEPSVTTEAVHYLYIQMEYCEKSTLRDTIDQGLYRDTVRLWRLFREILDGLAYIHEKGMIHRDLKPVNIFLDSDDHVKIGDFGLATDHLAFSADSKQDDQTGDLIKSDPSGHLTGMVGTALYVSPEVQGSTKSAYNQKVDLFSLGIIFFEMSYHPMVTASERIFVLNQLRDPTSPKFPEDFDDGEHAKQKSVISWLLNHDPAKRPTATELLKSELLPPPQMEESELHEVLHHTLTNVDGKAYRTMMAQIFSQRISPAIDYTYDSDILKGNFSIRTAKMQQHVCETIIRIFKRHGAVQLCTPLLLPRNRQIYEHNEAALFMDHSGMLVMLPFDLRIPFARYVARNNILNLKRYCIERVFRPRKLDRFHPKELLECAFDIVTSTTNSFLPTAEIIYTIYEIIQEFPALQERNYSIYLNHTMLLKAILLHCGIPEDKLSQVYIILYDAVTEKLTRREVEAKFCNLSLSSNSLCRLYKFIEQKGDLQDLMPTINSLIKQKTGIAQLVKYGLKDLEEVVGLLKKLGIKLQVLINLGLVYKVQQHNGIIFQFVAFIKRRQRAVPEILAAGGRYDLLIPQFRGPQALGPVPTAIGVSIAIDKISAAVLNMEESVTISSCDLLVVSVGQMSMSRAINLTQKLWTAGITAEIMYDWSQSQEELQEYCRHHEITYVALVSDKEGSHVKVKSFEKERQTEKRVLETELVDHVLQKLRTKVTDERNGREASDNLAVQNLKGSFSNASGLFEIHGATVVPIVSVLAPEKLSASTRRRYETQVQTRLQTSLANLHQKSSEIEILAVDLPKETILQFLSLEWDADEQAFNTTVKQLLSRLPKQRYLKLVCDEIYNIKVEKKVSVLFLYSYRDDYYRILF

In turn, `N#Cc1cccc(-c2c[nH]c3ncnc(N4CCOCC4)c23)c1` displayed a % of control in [1] of 100%. Moreover, the % of inhibition in [2] was determined as 14%.
As to `O=C(NOC[C@H](O)CO)c1ccc(F)c(F)c1Nc1ccc(I)cc1F`, the % of control in test [3] is 80%.
`CC[C@@H]1[C@H](F)C(=O)N[C@@H]1COc1nccc2cc(C(N)=O)c(OC)cc12` [ZIMLOVISERTIB] returned a % of inhibition in test [4] of 3.6%.
Take `CNCCN1CCC(c2cc(CN(C)C(=O)c3cccc(Oc4ccccc4)c3)ccn2)CC1`: the % activity in test [5] worked out at 82%.
Regarding `Cc1cc(CN)cc(C)c1-c1ncn(C)c1-c1cncn1C`, the dTM in test [6] was -1.17 K.
In the case of `O[C@H]1CC[C@H](Nc2ncc3nc(Nc4c(F)cc(F)cc4F)n([C@H]4CCOC4)c3n2)CC1`, the % of control in [7] and in [8] was 100% in each case.
Take `CN(C)CCCOc1ccc(-c2cc(NCCCn3cccn3)nc(S(C)(=O)=O)n2)cc1`: the dTM in test [9] is below 2 K.
For `C=CC(=O)Nc1ccc(C(=O)Nc2[nH]nc3c2CN(C(=O)N[C@H](CN(C)C)c2ccccc2)C3(C)C)cc1`, the “% of engagement” value in [10] was -9%.

The values above are taken from ChEMBL document CHEMBL5465560, “Selectivity Literature for EUbOPEN Chemogenomic Library” (2024).
